From paper PMC7483518, “Destabilizing single chain major histocompatibility complex class I protein for repurposed enterokinase proteolysis” (Scientific Reports, 2020)
Several values for one entry are separate records, joined by “and”; a condition that tells them apart may be missing. Identical values can stand only once. Like-named read-outs stand apart in the source and are kept apart here.

Tests used:
[1] = test system: HLA-A*11:01 single chain protein; type: biochemical, Human; design: EZ50kDa / EZ50kD (pH 6.2) / EZ50kD (pH 8) / EZ50kD (normalised: EBV1101 = 1, EBV0201 = 0) / EZ50kDa rank: unit not given beside the values; conditions: for EZ50kDa: Table 3, EGFR peptide library (n = 177, duplicated), 14 h;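 on EZ50kD (pH 6.2): scaled with positive control peptide as 1 and negative control peptide as 0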;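 on EZ50kDa: intact 50 kDa band volume scaled with positive control peptide as 1 and negative as 0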
[2] = biological target: photolabile unchained HLA-A*11:01 pMHC-I protein (Homo sapiens, UniProt P04439, A114D/D185E/E176A/F33Y/L180Q/S129P/T187R); assay: ELISA with photolabile unchained pMHC-I protein and UV irradiation; type: binding
[3] = EASY MHC-I A*11:01, gel 2019-07-23 lr1037_1045_5min, replicate 1 (first lane set)
[4] = EASY MHC-I A*11:01, gel 2019-07-23 lr1037_1045_5min, replicate 2 (second lane set)
[5] = EASY MHC-I A*11:01, 2019-07-25, mean of the 2 replicates
[6] = EASY MHC-I A*11:01, 2019-07-26, mean of the 2 replicates
[7] = EASY MHC-I A*11:01, 2019-08-01, mean of the 2 replicates
[8] = EASY MHC-I A*11:01, run 2019-08-06, 5min, mean of 2 replicates
[9] = EASY MHC-I A*11:01, run 2019-08-07, 5min, mean of 2 replicates
[10] = EASY MHC-I A*11:01, run 2019-08-08, 5min, mean of 2 replicates
[11] = EASY MHC-I A*11:01, gel 2019-07-17 lr1028-1036 5min, mean of 2 replicates
[12] = EASY MHC-I A*11:01, gel 2019-07-17 lr1028-1036 5min, replicate 1 (lanes 1-14)
[13] = EASY MHC-I A*11:01, gel 2019-07-17 lr1028-1036 5min, replicate 2 (lanes 15-28)
[14] = pH 6.2, 37 °C, enterokinase, Eq. (4)

Sequence | EZ_mean [1] | EASY_mean ([2]; […], mean, STDEV) | EASY_mean [2] | also measured
GRAKLLGA [LR1007] | -0.06438 |  |  | EASY_mean ([2]; ELISA signal, mean, […]): -0.02108
GRAKLLGAE [LR1016] | -0.03777 |  |  | EASY_mean ([2]; ELISA signal, mean, […]): -0.02066
GRAKLLGAEE [LR1026] | -0.04989 | -0.01509 |  | 
GRAKLLGAEEK [LR1037] |  |  | 0.0001747 | EZ_mean ([1]; EASY MHC-I A*11:01, gel 2019-07-23 lr1037_1045_5min, mean of 2 replicates): -0.05993; EZ50kD (normalised: EBV1101 = 1, EBV0201 = 0) [1, 3]: -0.04549; Norm (50 kDa band adj. volume normalised: Undig_37C = 1, Dig_37C = 0) [1, 3]: -0.01318; EZ50kD (normalised: EBV1101 = 1, EBV0201 = 0) [1, 4]: -0.07437; Norm (50 kDa band adj. volume normalised: Undig_37C = 1, Dig_37C = 0) [1, 4]: 0.01353
GRAKLLGAEEKE [LR1049] | -0.05058 |  | -0.01715 | 
GSLLDYVR [CS1007] | -0.06759 |  | -0.02696 | 
GSLLDYVRE [CS1016] | -0.06376 |  | -0.02695 | 
ICLTSTVQLIM [TM1028] | -0.09759 | -0.04901 |  | 
ICLTSTVQLIMQ [TM1039] | -0.1704 |  |  | EASY_mean ([2]; ELISA signal, mean, […]): -0.09515
IKTSPKAN [EX1002] | -0.02894 |  | -0.005748 | 
IKTSPKANK [EX1007] |  | -0.0128 |  | EZ_mean [1, 5]: -0.05095
IKTSPKANKE [EX1013] |  | -0.007577 |  | EZ_mean [1, 5]: -0.04249
IKTSPKANKEI [EX1020] |  |  |  | EZ_mean [1, 6]: -0.1313; EASY_mean ([2]; ELISA signal, mean, […]): -0.02309
IKTSPKANKEIL [EX1028] |  |  | -0.02595 | EZ_mean [1, 7]: -0.1371
IMQLMPFG [TM1007] |  |  |  | EZ_mean [1, 8]: -0.09302; EASY_mean ([2]; ELISA signal, mean, […]): -0.02903
IMQLMPFGC [TM1016] |  | -0.02516 |  | EZ_mean [1, 9]: -0.08902
IMQLMPFGCL [TM1026] |  |  |  | EZ_mean [1, 10]: -0.06176; Norm_mean [1, 10]: -0.05556; EASY_mean ([2]; ELISA signal, mean, […]): -0.02435
IMQLMPFGCLL [TM1037] | -0.1199 |  |  | EASY_mean ([2]; ELISA signal, mean, […]): -0.05375
IMQLMPFGCLLD [TM1049] | -0.08186 |  | -0.01469 | 
IPVAIKTSPKA [EX1016] |  | -0.002293 |  | EZ_mean [1, 6]: -0.1024

Sequence | EZ_mean [1] | EASY_mean ([2]; […], mean, STDEV) | EASY_mean [2] | also measured
IPVAIKTSPKAN [EX1024] |  |  | -0.02211 | EZ_mean [1, 7]: -0.1301
ITDFGRAKLL [LR1022] | -0.0609 | -0.02159 |  | 
ITDFGRAKLLG [LR1033] |  |  | -0.04357 | EZ_mean [1, 11]: -0.04472; EZ50kD (normalised: EBV1101 = 1, EBV0201 = 0) [1, 12]: -0.05531; Norm (50 kDa band adj. volume normalised: Undig_37C = 1, Dig_37C = 0) [1, 12]: -0.05765; EZ50kD (normalised: EBV1101 = 1, EBV0201 = 0) [1, 13]: -0.03414; Norm (50 kDa band adj. volume normalised: Undig_37C = 1, Dig_37C = 0) [1, 13]: -0.02949
ITDFGRAKLLGA [LR1045] | -0.0656 |  | -0.00307 | 
ITQLMPFGS [CS1009] | -0.06498 |  | -0.02581 | 
ITQLMPFGSL [CS1019] | -0.0702 |  | -0.007918 | 
ITQLMPFGSLLD [CS1042] | -0.03951 |  | -0.01907 | 
KIPVAIKTSPKA [EX1023] |  |  | -0.01234 | EZ_mean [1, 7]: -0.1135
KITDFGRA [LR1002] | -0.03733 | -0.007222 |  | 
KITDFGRAKL [LR1021] | -0.05252 | -0.0154 |  | 
KITDFGRAKLL [LR1032] |  |  | 0.009234 | EZ_mean [1, 11]: 0.03523; EZ50kD (normalised: EBV1101 = 1, EBV0201 = 0) [1, 12]: 0.01844; Norm (50 kDa band adj. volume normalised: Undig_37C = 1, Dig_37C = 0) [1, 12]: -0.01259; EZ50kD (normalised: EBV1101 = 1, EBV0201 = 0) [1, 13]: 0.05201; Norm (50 kDa band adj. volume normalised: Undig_37C = 1, Dig_37C = 0) [1, 13]: 0.03105; EZ50kDa [1, 14]: 0.0352 ± 0.024
KITDFGRAKLLG [LR1044] | 0.1681 |  | 0.1191 | EZ50kD (normalised: EBV1101 = 1, EBV0201 = 0) [1]: 0.1471 and 0.1891; Norm (50 kDa band adj. volume normalised: Undig_37C = 1, Dig_37C = 0) [1]: 0.1017 and 0.1364; EZ50kDa [1, 14]: 0.2 and 0.168 ± 0.030
KTSPKANK [EX1003, EGFR exon 19 deletion-derived peptide] | 0.03406 |  | 0.02773 | EZ50kDa [1, 14]: 0.0341 ± 0.022
KTSPKANKE [EX1008] |  | -0.00166 |  | EZ_mean [1, 5]: -0.03131
KTSPKANKEI [EX1014] |  | -0.002118 |  | EZ_mean [1, 6]: -0.1022
KTSPKANKEIL [EX1021] |  | -0.001833 |  | EZ_mean [1, 6]: -0.102
KTSPKANKEILD [EX1029] |  |  | -0.02661 | EZ_mean [1, 7]: -0.1385
LIMQLMPF [TM1006] |  | -0.03127 |  | EZ_mean [1, 8]: -0.09815
LIMQLMPFG [TM1015] |  | -0.03975 |  | EZ_mean [1, 9]: -0.1155
LIMQLMPFGC [TM1025] |  |  |  | EZ_mean [1, 10]: -0.05365; Norm_mean [1, 10]: -0.04493; EASY_mean ([2]; ELISA signal, mean, […]): -0.02724

Sequence | EZ_mean [1] | EASY_mean ([2]; […], mean, STDEV) | EASY_mean [2] | also measured
LIMQLMPFGCL [TM1036] | -0.1248 |  |  | EASY_mean ([2]; ELISA signal, mean, […]): -0.07162
LIMQLMPFGCLL [TM1048] | -0.1103 |  | -0.04956 | 
LITQLMPFGS [CS1018] | -0.05783 |  | 0.007236 | 
LITQLMPFGSL [CS1029] | -0.07478 |  | -0.02804 | 
LMPFGSLL [CS1003] | -0.06827 |  | 0.002317 | 
LMPFGSLLD [CS1012, probably meant CS1032] | -0.06046 |  | -0.02081 | EZ MHC-I stability with HLA-A*11:01 single chain protein ([1]; Fig. 2f,g, EGFR peptide library): strongly stabilizing
LMPFGSLLDY [CS1022] | -0.05808 |  | 0.006828 | 
LMPFGSLLDYV [CS1033] | -0.06309 |  | -0.01373 | 
LTSTVQLIM [TM1009] |  | -0.03424 |  | EZ_mean [1, 8]: -0.1009
LTSTVQLIMQ [TM1019] |  | -0.02206 |  | EZ_mean [1, 10]: -0.0385; Norm_mean [1, 10]: -0.02611
LTSTVQLIMQL [TM1030] | -0.07795 | -0.03337 |  | 
LTSTVQLIMQLM [TM1041] | -0.1142 | -0.04948 |  | 
MPFGSLLD [CS1004] | -0.07336 |  | -0.003998 | 
MPFGSLLDY [CS1013] | -0.0684 |  | -0.03532 | 
MPFGSLLDYV [CS1023] | -0.04531 |  | 0.02198 | 
MPLGSLLDYVR [CS1034] | -0.06141 |  | -0.006346 | 
MQLMPFGC [TM1008] |  |  |  | EZ_mean [1, 8]: -0.09972; EASY_mean ([2]; ELISA signal, mean, […]): -0.0333
MQLMPFGCL [TM1017] |  | -0.03322 |  | EZ_mean [1, 9]: -0.1037
MQLMPFGCLLD [TM1038] | -0.125 |  |  | EASY_mean ([2]; ELISA signal, mean, […]): -0.0584
NTLEQTVKK [reference compound] |  |  |  | EZ50kD (pH 6.2) ([1]; Table 2, pH 6.2, 37 °C, enterokinase, Eq. (4), instability cutoff < 0.3): 0.5647; ELISA450nm ([2]; Table 2, 62.5 nM photolabile pMHC-I mixture, 5 μM peptide in PBS, UV 365 nm 2 × 5 min on ice, 2 h room temperature on anti-β2m plate, Abs450nm − Abs570nm, instability cutoff < 0.6): 1.631
